{"source": "patent US20230255954A1", "about": "“INTERLEUKIN 33 (IL-33) INHIBITION FOR TREATMENT OF CANCER, FIBROSIS AND INFLAMMATION” (The General Hospital Corporation, priority 2020, published 2023)", "key": {"[1]": {"test_system": "IL-33 protein in PyMT cells", "assay": "IL-33 protein levels in PyMT cells (western blot)", "type": "cell-based, mouse", "details": "dose range", "experimental": "Pam212 cells were grown at 37° C. in DMEM (Thermo Fisher Scientific, Waltham, Mass., catalog no. 11995065) supplemented with 10% fetal bovine serum (Thermo Fisher Scientific, catalog no. 26140079), 1× penicillin-streptomycin-glutamine (Thermo Fisher Scientific, catalog no. 10378016), 1×MEM non-essential amino acids solution (Thermo Fisher Scientific, catalog no. 11140050), 1×HEPES (Thermo Fisher Scientific, catalog no. 15630080) and 0.1% 2-Mercaptoethanol (Thermo Fisher Scientific, catalog no. 21985023). PyMT cell lines (derived from a primary breast tumor of MMTV-PyMrg mouse on a C57BL/6 background) were grown at 37° C. in RPMI Medium 1640 (Thermo Fisher Scientific, catalog no. 11875093) supplemented with 10% fetal bovine serum, 1× penicillin-streptomycin-glutamine and 0.1% 2-Mercaptoethanol. IL-33 promoter-luci vector (GeneCopoeia, Rockville, Md., catalog no. MPRM3494-PG02) or Control-luci vector (deletion form of IL-33 promoter region from IL-33 promoter-luci vector) or Poly (I:C) (Invivogen, San Diego, Calif., catalog no. tlrl-pic) in Pam212 cells were performed using Lipofectamine 2000 (Thermo Fisher Scientific, catalog no. 11668019) according to the manufacturer's instructions.\nCell lysates were prepared in LIPA buffer (Thermo Fisher Scientific, catalog no. 89900) consisting of 1× protease inhibitor cocktail, EDTA-free (Thermo Fisher Scientific, catalog no. A32955). […]"}, "[2]": {"test_system": "endogenous Il33 expression in PyMT breast cancer cell line", "assay": "Endogenous Il33 RNA in PyMT breast cancer cell line", "type": "cell-based, mouse", "experimental": "Pam212 cells were grown at 37° C. in DMEM (Thermo Fisher Scientific, Waltham, Mass., catalog no. 11995065) supplemented with 10% fetal bovine serum (Thermo Fisher Scientific, catalog no. 26140079), 1× penicillin-streptomycin-glutamine (Thermo Fisher Scientific, catalog no. 10378016), 1×MEM non-essential amino acids solution (Thermo Fisher Scientific, catalog no. 11140050), 1×HEPES (Thermo Fisher Scientific, catalog no. 15630080) and 0.1% 2-Mercaptoethanol (Thermo Fisher Scientific, catalog no. 21985023). […]\nMouse dorsal skin samples were homogenized and lysed in RLT lysis solution (QIAGEN, catalog no. 79216)/0.1% MeOH using Mini-BeadBeater-8 (BioSpec Products, Inc., Bartlesville, Okla.). Total RNA was extracted using an RNeasy micro kit and quantified using NanoDrop ND-1100 (NanoDrop Technologies, Wilmington, Del.). cDNA samples were synthesized from 1 μg of total RNA using Invitrogen SuperScripts III Reverse Transcriptase (Thermo Fisher Scientific, catalog no. 18080085). Expression levels of all cDNA samples were determined with LightCycler 480 system (Roche Molecular Systems Inc., Pleasanton, Calif.) using TaqMan Universal Master Mix II (Thermo Fisher Scientific, catalog no. 44-400-40). […]"}}, "data": [{"smiles": "O=C(O)C[C@H](O)C[C@H](O)/C=C/c1c(C2CC2)nc2ccccc2c1-c1ccc(F)cc1", "note": "[pitavastatin]", "values": [{"measurement": "endogenous IL-33 protein level", "setting": "[1]", "value": "decreased"}, {"measurement": "endogenous Il33 RNA level", "setting": "[2]", "value": "inhibitory effect"}]}]}
